Source: patent US9943528B2 (MAPREG, priority 2016, dated 2018)
Entries after “also recorded” stand apart in the source; their conditions may differ.

Columns and labels:
MAP2 = assay: Binding (affinity) by displacement of PREG-3H
[1] = tested on: purified tubulin and MAP2; assay: Activity: increase in optical density at 345 nm of purified tubulin and MAP2 with GTP; format: biochemical; conditions: 37° C.
Experimental: Activity is measured by the increase in optical density at 345 nm of a mixture of purified tubulin and MAP2, incubated at 37° C. in the presence of GTP.

[2] = tested on: Wistar Kyoto rat strain (WKY); conditions: WKY rats, literature; cited from earlier work
WKY rats = conditions: cited from earlier work; for resistance of WKY rats to the drug: fluoxetine acute or chronic, citalopram acute, paroxetine sub-chronic (12 days)
[3] = biological target: T1, human progesterone receptor (PR) (Homo sapiens, UniProt P06401); assay: Test of progesterone receptor agonist activity (MMTV-luciferase transactivation in transfected HEK293T cells); format: cell-based; conditions: 24 hours, increasing amounts, FIG. 1
T1 construct: expressed in transfected cells; host or cells: HEK293T
T1 sequence (P06401 1-933): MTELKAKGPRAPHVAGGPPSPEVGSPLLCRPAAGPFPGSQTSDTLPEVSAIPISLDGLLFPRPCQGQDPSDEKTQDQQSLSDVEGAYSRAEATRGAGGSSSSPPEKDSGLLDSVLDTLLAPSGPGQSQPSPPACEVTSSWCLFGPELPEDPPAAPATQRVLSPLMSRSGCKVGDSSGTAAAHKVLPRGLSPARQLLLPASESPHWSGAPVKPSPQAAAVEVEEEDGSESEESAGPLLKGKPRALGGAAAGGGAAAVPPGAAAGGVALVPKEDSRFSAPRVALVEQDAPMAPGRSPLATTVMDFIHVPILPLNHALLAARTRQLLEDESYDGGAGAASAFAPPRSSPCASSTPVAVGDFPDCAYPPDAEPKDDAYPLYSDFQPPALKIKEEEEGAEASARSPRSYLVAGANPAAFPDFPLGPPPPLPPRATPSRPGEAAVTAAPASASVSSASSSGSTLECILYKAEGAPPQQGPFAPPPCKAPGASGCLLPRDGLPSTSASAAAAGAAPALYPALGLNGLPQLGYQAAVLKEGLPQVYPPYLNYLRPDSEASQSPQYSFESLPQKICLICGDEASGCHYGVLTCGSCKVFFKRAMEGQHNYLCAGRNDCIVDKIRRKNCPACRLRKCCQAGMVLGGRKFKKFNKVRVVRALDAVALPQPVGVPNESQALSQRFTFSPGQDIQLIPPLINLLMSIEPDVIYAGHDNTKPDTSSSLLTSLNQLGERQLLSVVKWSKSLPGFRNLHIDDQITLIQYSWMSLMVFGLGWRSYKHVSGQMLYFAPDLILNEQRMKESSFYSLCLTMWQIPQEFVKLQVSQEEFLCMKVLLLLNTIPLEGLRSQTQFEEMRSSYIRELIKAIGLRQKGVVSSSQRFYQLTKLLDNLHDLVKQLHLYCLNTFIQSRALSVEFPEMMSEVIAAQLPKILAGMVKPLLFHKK
Experimental: The main experimental setting used is the following: HEK293T cells were transiently transfected, using calcium phosphate precipitation technology, with expression vectors pSG5hPR (which permits expression of human progesterone receptor (PR)), pFC31-luc (contains the luciferase gene under the control of the MMTV promoter, which is in turn activated by binding of a progestin to progesterone receptor) and pcbetagal (which permits expression of betagalactosidase), and cultured during 24 hours with increasing amounts of various compositions:
Test of Progesterone Receptor Agonist Activity: Transfected Cells were Cultured with Increasing Amounts of Progesterone or 3-Methoxy-Pregnenolone

PC12 cells = assay: Stimulation of neuritic sprouting on PC12 cells differentiated with NGF; format: cell-based; conditions: NGF 10 ng/ml, steroid 30 μM, 3 days, relative to PREG
Experimental: Stimulation of neuritic sprouting is conducted on PC12 cells differentiated in the presence of NGF (10 ng/ml) and the steroid being tested (30 μM) for 3 days. For each condition, the average length of the longest 200 neurites in each cell is measured simultaneously for 3 cultures.

[4] = Body weight of WKY rats under acute treatment; format: in vivo, rat; conditions: fluoxetine 10 mg/kg
Wistar Kyoto (WKY) rats = assay: Open-field arena (OFA) in WKY rats, acute treatment; format: in vivo, rat; conditions: fluoxetine 10 mg/kg i.p., ketamine 30 mg/kg i.p.; for number of entries in the central square of OFA, change vs WKY receiving only vehicle: FIG. 5B; for time spent in the center of open-field vs WKY receiving vehicle: FIG. 5C
Experimental: After a 6-day period of acclimatization, all experimental groups received daily successive subcutaneous (250 μl per rat) and intraperitoneal (1 ml/kg) injections. WI rats received injection of vehicle (sesame oil+saline) while WKY rats were randomly assigned to […] experimental groups, as follow: KWY rats receiving only vehicle (sesame oil+saline) and WKY rats treated with MAP4343 (10 mg/kg, s.c.; rats received in parallel i.p. injections of saline), fluoxetine (10 mg/kg i.p., rats received in parallel s.c. injections of sesame oil) or ketamine (30 mg/kg, i.p.; rats received in parallel s.c. injections of sesame oil) (see FIG. 3).
After, a 6-day period of acclimatization, the acute phase of treatment started for 4 days during behavioral tests were performed (FIG. 3). All animals were injected 1 h 30 before the starting of behavioral test.
The animals were individually placed in the open field arena (OFA) (70×100×70 cm), with a central square (35×50 cm), located in a 50 lux illuminated room and videotaped during 3 min using a computerized system (VideoTrack V2.5, ViewPoint, Lyon, France).
OFA allows firstly the evaluation of total locomotor activity (LMA) thereby measuring the total distance travelled in the arena (in cm). Secondly, measurements of the activity in the center of the arena like (i) the number of entries in the center of arena and (ii) the total time spent in the center of arena (in sec) provide cues of anxiety-like behavior (Prut and Belzung, 2003). All these behavioral parameters were instantaneously measured automatically with the VideoTrack V2.5 software from the videos.

| Compound | Affinity (MAP2) | Activity [1] | further results |
| --- | --- | --- | --- |
| CO[C@H]1CC[C@@]2(C)C(=CC[C@@H]3[C@@H]2CC[C@@]2(C)[C@H]3CC[C@@]2(C(C)=O)C(Cl)Cl)C1 [3β-methoxy-pregna-5-ene-20-one-17α-dichloromethyl] | 53% of PREG | 113% of PREG | – |
| CNCCCN1c2ccccc2CCc2ccccc21 [desipramine] | – | – | immobility / depressive-like behavior in FST [2]: efficient to reverse depressive-like behavior |
| Fc1ccc([C@@H]2CCNC[C@H]2COc2ccc3c(c2)OCO3)cc1 [paroxetine] | – | – | resistance of WKY rats to the drug (WKY rats): resistant |
| CC(=O)[C@H]1CC[C@H]2[C@@H]3CCC4=CC(=O)CC[C@]4(C)[C@H]3CC[C@]12C [progesterone, reference compound] | – | – | progesterone receptor agonist activity (transactivation, expression of luciferase) [3]: permits a transactivation activity |
| CO[C@H]1CC[C@@]2(C)[C@@H](CC[C@@H]3[C@@H]2CC[C@]2(C)[C@@H](C(C)=O)CC[C@@H]32)C1 [3β-methoxy-5α-pregnane-20-one] | 87% of PREG | 10% of PREG | – |
| NNCCc1ccccc1 [phenelzine] | – | – | immobility / depressive-like behavior in FST [2]: subacute efficacy to reduce immobility |
| CO[C@H]1CC[C@@]2(C)C(CCC3C2CC[C@@]2(C)C3CC[C@@H]2[C@@H](C)O)C1 (stereo partly drawn) [3β-methoxy-5α-pregnane-20β-ol] | 65% of PREG | 65% of PREG | – |
| PREG-16α,17α-epoxy | 41% of PREG | 54% of PREG | Neuritic sprouting (PC12 cells): + (lower than) |
| CC(=O)[C@H]1[C@@H](C)C[C@H]2[C@@H]3CC=C4C[C@@H](O)CC[C@]4(C)[C@H]3CC[C@@]21C [PREG-16β-methyl] | 63% of PREG | 67% of PREG | – |
| CC(=O)[C@H]1[C@H](C)C[C@H]2[C@@H]3CC=C4C[C@@H](O)CC[C@]4(C)[C@H]3CC[C@@]21C [PREG-16α-methyl] | 80% of PREG | 70% of PREG | Neuritic sprouting (PC12 cells): ++ (equal to) |
| CC(=O)[C@H]1[C@H](C)C[C@H]2[C@@H]3CC[C@H]4C[C@@H](O)CC[C@]4(C)[C@H]3CC[C@@]21C [3β-hydroxy-5α-pregnane-20-one-16α-methyl] | 57% of PREG | 53% of PREG | – |
| CC(=O)[C@H]1CC[C@H]2[C@@H]3CC=C4C[C@@H](O)CC[C@]4(C)[C@H]3CC[C@]12C [Pregnenolone (PREG), 3β-hydroxypregn-5α-en-20α-one, reference compound] | 100% of PREG | 100% of PREG | Neuritic sprouting (PC12 cells): ++ (equal to) |
| CNCCC(Oc1ccc(C(F)(F)F)cc1)c1ccccc1 (stereo not drawn) [fluoxetine] | – | – | body weight [4]: a reduced body weight; efficacy in OFA, EPM and FST (WKY rats; WKY rats, acute or chronic administration): no efficacy; resistance of WKY rats to the drug (WKY rats): resistant; number of entries in the central square of OFA, change vs WKY receiving only vehicle (Wistar Kyoto (WKY) rats; MAP4343 10 mg/kg s.c.): failed to significantly modify the low entries in the center; time spent in the center of open-field vs WKY receiving vehicle (Wistar Kyoto (WKY) rats; MAP4343 10 mg/kg s.c.): did not induce any significant change of this measure; locomotor activity (total distance travelled in the open-field arena), change vs MAP4343-treated WKY (Wistar Kyoto (WKY) rats; FIG. 5A): −52% |
| CO[C@H]1CC[C@@]2(C)C(=CC[C@H]3C4=CC[C@H](C(C)=O)[C@@]4(C)CC[C@@H]32)C1 [3β-methoxy-pregna-5,14-diene-20-one] | 102% of PREG | 50% of PREG | – |
| CC(=O)OC(C)C1CCC2C3CC=C4CC(O)CCC4(C)C3CCC12C (stereo not drawn) [Pregna-5-ene-3β, 20β-dio1-20-acetate] | 60% of PREG | 108% of PREG | Neuritic sprouting (PC12 cells): ++ (equal to) |
| CNC1(c2ccccc2Cl)CCCCC1=O (stereo not drawn) [ketamine] | – | – | immobility / depressive-like behavior in FST [2]: elicited antidepressant-like effect; also recorded: decrease immobility; locomotor activity (total distance travelled in the open-field arena), change vs WKY receiving vehicle (Wistar Kyoto (WKY) rats; MAP4343 10 mg/kg s.c., 3 min, FIG. 5A): no significant change of locomotor activity; number of entries in the central square of OFA, change vs WKY receiving only vehicle (Wistar Kyoto (WKY) rats; MAP4343 10 mg/kg s.c.): failed to significantly modify the low entries in the center; time spent in the center of open-field vs WKY receiving vehicle (Wistar Kyoto (WKY) rats; MAP4343 10 mg/kg s.c.): did not induce any significant change of this measure; locomotor activity (total distance travelled in the open-field arena), change vs MAP4343-treated WKY (Wistar Kyoto (WKY) rats; FIG. 5A): no significant change of locomotor activity |
| CC(=O)[C@@]12C[C@@H]1C[C@H]1[C@@H]3CC=C4C[C@@H](O)CC[C@]4(C)[C@H]3CC[C@@]12C [PREG-16α,17α-methylene] | 62% of PREG | 49% of PREG | Neuritic sprouting (PC12 cells): + (lower than) |
